Assay results taken from patent publication US11179412B2, “Methods of treating conditions involving elevated inflammatory response” (University of Pittsburgh—Of the Commonwealth System of …, priority 2017, dated 2021).
Structures can show the parent of a compound that is named as a salt.

Tested on: STING activation (IFNβ release) in iBMDMs
Assay: IFNβ release ELISA after STING ligand (or LPS) stimulation, iBMDMs
Assay type: cell-based, mouse
Conditions: iBMDMs; 3′3′-cGAMP 10 μg/ml, 16 hours; compound 10 μM
Method in brief: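 IFNβ released into the medium was quantified by ELISA (mouse or human kit) after iBMDM stimulation with the canonical STING agonist 3′3′-cGAMP or with LPS.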

SMILES	fold increase in IFN-β release [fold]	3′3′-cGAMP-induced IFNβ release
C[S+]([O-])c1ccc(-c2nc(-c3ccc(F)cc3)c(-c3ccncc3)[nH]2)cc1 (stereo not drawn) [SB203580]	0.35	–
Cc1cc(NC(=O)Nc2ccc(N(C)C)cc2)c2cc(F)cc(F)c2n1 [SB408124]	1.90	–
O=C1NC(=O)C(c2ccccc2[N+](=O)[O-])=C1Nc1ccc(O)c(Cl)c1 [SB415286]	1.15	–
NC(=O)c1ccc(-c2nc(-c3ccccn3)c(-c3ccc4c(c3)OCO4)[nH]2)cc1 [SB431542]	0.78	–
O=C(Nc1ccccc1Br)N[C@@H]1CCN(c2ccc(C(F)(F)F)cn2)C1 [SB705498]	0.32	–
O=S(=O)(c1ccccc1)c1cnc2c(N3CCNCC3)cccc2c1 [SB742457]	0.65	–
Cc1ccc(C(=O)N(CCCN)[C@@H](c2oc3cc(Cl)ccc3c(=O)c2Cc2ccccc2)C(C)C)cc1 [SB743921]	1.16	–
O=S(=O)(CC1CS1)c1ccc(Oc2ccccc2)cc1 (stereo not drawn) [SB-3CT]	0.49	–
O=C(NNc1nc2cc(F)ccc2n2cccc12)c1cnccn1 [SC144]	2.63	–
CC(C)N(CCCNC(=O)Nc1ccc(C(C)(C)C)cc1)C[C@H]1O[C@@H](n2cc(Br)c3c(N)ncnc32)[C@H](O)[C@@H]1O [SGC 0946]	1.90	–
Cc1cc(Nc2ccc(NC(=O)c3ccc(Nc4ccnc5ccccc45)cc3)cc2)nc(N)n1 [SGI-1027]	0.37	–
CN1CCC(CNc2ccc3ncc(-c4cccc(OC(F)(F)F)c4)n3n2)CC1 [SGI-1776 free base]	0.65	–
Oc1ccc(Nc2nc(-c3ccc(Cl)cc3)cs2)cc1 [SKI II]	0.49	–
O=C1NC(=O)/C(=C/c2cccc(C(F)(F)F)c2)S1 [SMI-4a]	0.84	–
CC(C)(C)c1cnc(CSc2cnc(NC(=O)C3CCNCC3)s2)o1 [SNS-032 (BMS-387032)]	1.01	–
Oc1c2ccccc2c2c3c(cccc13)N=N2 [SP600125]	3.35	–
O=C(Nc1cc(C(F)(F)F)ccc1N1CCCCC1)c1ccncc1 [SRPIN340]	2.38	–
O=C(Nc1ccccc1-c1cn2c(CN3CCNCC3)csc2n1)c1cnc2ccccc2n1 [SRT1720]	0.76	–
COc1c(C)c(C(=O)c2ccc(N)c(C(=O)[O-])c2)n2ccccc12.[Na+] [SSR128129E]	0.98	–
Cc1ccc(S(=O)(=O)Cc2nc(-c3ccc(C(=O)NCc4cccnc4)cc3)oc2C)cc1 [STF-118804]	1.41	–
Cc1[nH]c(/C=C2\C(=O)Nc3ccc(S(=O)(=O)N(C)c4cccc(Cl)c4)cc32)c(C)c1C(=O)N1CCN(C)CC1 [SU11274]	0.75	–
C[C@H](NCc1ccc(OCc2cccc(F)c2)cc1)C(N)=O [Safinamide Mesylate]	5.18	–
O=C(/C=C/c1ccccc1)NC(NC(=S)Nc1ccc(Cl)cc1)C(Cl)(Cl)Cl (stereo not drawn) [Sal003]	0.18	–
CCOC(=O)NCCCC(=O)NCCc1ccccc1 [Santacruzamate A (CAY10683), Santacruzamate A]	1.18	–
Cn1cnc2c(F)c(Nc3ccc(Br)cc3Cl)c(C(=O)NOCCO)cc21 [Selumetinib (AZD6244), Selumetinib]	0.50	–

SMILES	fold increase in IFN-β release [fold]	3′3′-cGAMP-induced IFNβ release
CC(C)[C@H](O)C(=O)N[C@@H](C)C(=O)N[C@@H]1C(=O)N(C)CCc2ccccc21 [Semagacestat (LY450139), Semagacestat]	1.04	–
CN[C@H]1CC[C@@H](c2ccc(Cl)c(Cl)c2)c2ccccc21 [Sertraline HCl]	0.22	–
CC(NC(=O)c1ccccc1/N=C/c1c(O)ccc2ccccc12)c1ccccc1 (stereo not drawn) [Sirtinol]	0.26	–
Cc1cc2c(cc1CC(=O)c1sccc1S(=O)(=O)Nc1onc(C)c1Cl)OCO2 [Sitaxentan sodium]	1.16	–
Nc1ccc(C(=O)[O-])c(O)c1.[Na+] [Sodium 4-Aminosalicylate]	0.74	–
CNC(=O)c1cc(Oc2ccc(NC(=O)Nc3ccc(Cl)c(C(F)(F)F)c3)cc2)ccn1 [Sorafenib]	0.91	–
CN1CCN(c2nc(C3=C(c4c[nH]c5ccccc45)C(=O)NC3=O)c3ccccc3n2)CC1 [Sotrastaurin]	0.59	–
O=[N+]([O-])c1ccc2c(c1)S(=O)(=O)C=C2 [Stattic]	0.10	–
Cc1cn([C@H]2C=C[C@@H](CO)O2)c(=O)[nH]c1=O [Stavudine (d4T), Stavudine]	8.20	promoted
Cc1ccc(-n2nccn2)c(C(=O)N2CCN(c3nc4cc(Cl)ccc4o3)CC[C@H]2C)c1 [Suvorexant (MK-4305), Suvorexant]	1.54	–
O=C(Nc1ccncc1)c1cc([N+](=O)[O-])ccc1Cl [T0070907]	2.09	–
O=S(=O)(c1ccccc1)N(CC(F)(F)F)c1ccc(C(O)(C(F)(F)F)C(F)(F)F)cc1 [T0901317]	1.49	–
CNC(=O)c1ccccc1Nc1nc(Nc2ccc(N3CCOCC3)cc2OC)ncc1Cl [TAE226 (NVP-TAE226)]	1.50	–
CNC(=O)c1ccc2cc([C@@]3(O)CCn4cncc43)ccc2c1 [TAK-700 (Orteronel), Orteronel]	2.72	–
Cc1cc(OCCCS(C)(=O)=O)cc(C)c1-c1cccc(COc2ccc3c(c2)OC[C@H]3CC(=O)O)c1 [TAK-875]	1.17	–
O=C1CC(=O)c2c(Cl)c(Cl)c(Cl)c(Cl)c21 [TCID]	1.43	–
COc1ccc(C(=O)Nc2sc3c(c2C(N)=O)CCCC3)cc1OC [TCS 359]	0.45	–
Nc1nc(N)c2nc(-c3cccc(O)c3)c(-c3cccc(O)c3)nc2n1 [TG100-115]	2.65	–
O=C(NCC1(c2nc(-c3ccccc3)cs2)CCOCC1)c1cccc(-c2noc(C(F)(F)F)n2)c1 [TMP269]	1.59	–
NC(=O)Nc1sc(-c2ccc(F)cc2)cc1C(N)=O [TPCA-1]	2.63	–
Nc1cccc(-c2cc3c(Oc4cccc(O)c4)ncnc3[nH]2)c1 [TWS119]	0.35	–
CN1CC(=O)N2[C@H](c3ccc4c(c3)OCO4)c3[nH]c4ccccc4c3C[C@@H]2C1=O [Tadalafil]	2.66	–
COc1cc2c(N3CCN(C(=O)Nc4ccc(OC(C)C)cc4)CC3)ncnc2cc1OCCCN1CCCCC1 [Tandutinib (MLN518), Tandutinib]	0.65	–
COc1cc2c(cc1OC)CN(CCc1ccc(NC(=O)c3cc(OC)c(OC)cc3NC(=O)c3cnc4ccccc4c3)cc1)CC2 [Tariquidar]	0.77	–
CCCc1nc2c(C)cc(-c3nc4ccccc4n3C)cc2n1Cc1ccc(-c2ccccc2C(=O)O)cc1 [Telmisartan]	2.26	–
